Publication PMC10582335 (Frontiers in Pharmacology, 2023)

Experiments:
[1] = cited from earlier work
[2] = Stability in rat plasma under storage and processing conditions (QC samples, UPLC-MS/MS); settings: n = 6
Description: The stability of plasma samples was validated by the QC samples at three concentration levels in six replicates under various storage and processing conditions: autosampler for 24 h after preprocessing, room temperature for 8 h, −80°C for 30 days, and three freeze-thaw cycles (−80°C to room temperature). The samples were verified to be stable if the deviation of the samples was not more than ±15% of the standard concentration.

Abcg2 mRNA (BCRP) = test: qRT-PCR of mRNA expression in rat tissues after multiple-dose almonertinib; assay type: in vivo; settings: intestine, rats given almonertinib for nine consecutive days, n = 3
Description: Sixty healthy rats were randomly divided into ten groups (n = 6). […] Blood samples were centrifuged at 3,500 g for 10 min, and then the supernatant was gathered and stored in a −80°C refrigerator. After, rat intestine, kidney and liver tissues were harvested for molecular analysis on the ninth or fifth day after treatment with the corresponding drugs for each group. The tissues were placed immediately at −80°C.
qRT-PCR analysis was used to determine mRNA levels of Abcb1a, Abcg2 and Cyp3a1 in the liver and intestines, and Abcb1a and Abcg2 in the kidney of rats. Total RNA was isolated from frozen liver, intestine and kidney samples using TRNzol Universal according to the manufacturer’s instructions. A Bio Tek Epoch (Bio Tek Instruments, Inc., Winooski, VT, United States) was employed to quantify the purity and concentration of the total RNA based on the ratio of the absorbance between 260 and 280 nm. RNA samples of 1 µg were transformed to complementary DNA (cDNA) using the FastKing RT Kit. The real-time PCR assays were accomplished using a two-step amplification method based on the recommendations in a SLAN-96S Real-Time PCR system (Shanghai Hongshi Medical Technology Co., Ltd. Shanghai, China). […] was used as an internal control, and the PCR cycling criteria were as follows: 95°C for 15 min, then 40 cycles of 95°C for 10, and 60°C for 32 s.

[3] = Freeze-thaw stability for three times, high QC (nominal 150 almonertinib, 800 apixaban, 1,500 rivaroxaban ng/mL)
[4] = Freeze-thaw stability for three times, low QC (nominal 1 almonertinib, 2 apixaban, 10 rivaroxaban ng/mL)
[5] = Freeze-thaw stability for three times, medium QC (nominal 80 almonertinib, 400 apixaban, 800 rivaroxaban ng/mL)
[6] = Room temperature for 8 h, high QC (nominal 150 almonertinib, 800 apixaban, 1,500 rivaroxaban ng/mL)
[7] = Room temperature for 8 h, low QC (nominal 1 almonertinib, 2 apixaban, 10 rivaroxaban ng/mL)
[8] = Room temperature for 8 h, medium QC (nominal 80 almonertinib, 400 apixaban, 800 rivaroxaban ng/mL)
[9] = −80°C for 30 days, high QC (nominal 150 almonertinib, 800 apixaban, 1,500 rivaroxaban ng/mL)
[10] = −80°C for 30 days, low QC (nominal 1 almonertinib, 2 apixaban, 10 rivaroxaban ng/mL)
[11] = −80°C for 30 days, medium QC (nominal 80 almonertinib, 400 apixaban, 800 rivaroxaban ng/mL)

C=CC(=O)Nc1cc(Nc2nccc(-c3cn(C4CC4)c4ccccc34)n2)c(OC)cc1N(C)CCN(C)C [almonertinib, Almonertinib]
half-life ([1]; almonertinib, ref Yang et al., 2020): 30 to 35 h
Stability: Accuracy (RE%) [2, 3]: −2.56%
Stability: measured concentration, Mean ± SD [2, 3]: 146.17 ± 6.68 ng/mL
Stability: Accuracy (RE%) [2, 4]: 1.47%
Stability: measured concentration, Mean ± SD [2, 4]: 1.01 ± 0.09 ng/mL
Stability: Accuracy (RE%) [2, 5]: 2.13%
Stability: measured concentration, Mean ± SD [2, 5]: 81.7 ± 2.27 ng/mL
Stability: Accuracy (RE%) [2, 6]: −1.67%
Stability: measured concentration, Mean ± SD [2, 6]: 147.50 ± 9.83 ng/mL
Stability: Accuracy (RE%) [2, 7]: 0.97%
Stability: measured concentration, Mean ± SD [2, 7]: 1.01 ± 0.08 ng/mL
Stability: Accuracy (RE%) [2, 8]: 0.60%
Stability: measured concentration, Mean ± SD [2, 8]: 80.48 ± 6.42 ng/mL
Stability: Accuracy (RE%) [2, 9]: −2.22%
Stability: measured concentration, Mean ± SD [2, 9]: 146.67 ± 10.63 ng/mL
Stability: Accuracy (RE%) [2, 10]: 2.33%
Stability: measured concentration, Mean ± SD [2, 10]: 1.02 ± 0.10 ng/mL
Stability: Accuracy (RE%) [2, 11]: 0.65%
Stability: measured concentration, Mean ± SD [2, 11]: 80.52 ± 3.47 ng/mL
inhibition of mRNA expression of Abcg2 (Abcg2 mRNA (BCRP)): 28.0%

COc1ccc(-n2nc(C(N)=O)c3c2C(=O)N(c2ccc(N4CCCCC4=O)cc2)CC3)cc1 [apixaban, Apixaban]
time of the maximal blood concentration after oral intake ([1]; (±1 h), each of two drugs, ref Steffel et al., 2021): 2 to 3 h
time to reach maximum plasma concentrations ([1]; after oral administration, ref Kubitza et al., 2005a, Kubitza et al., 2005b, Raghavan et al., 2009): 2 to 4 h
renal excretion as share of the total clearance ([1]; apixaban, ref Byon et al., 2019): approximately 27%
Stability: Accuracy (RE%) [2, 3]: 0.04%
Stability: measured concentration, Mean ± SD [2, 3]: 800.33 ± 24.72 ng/mL
Stability: Accuracy (RE%) [2, 4]: −3.42%
Stability: measured concentration, Mean ± SD [2, 4]: 1.93 ± 0.13 ng/mL
Stability: Accuracy (RE%) [2, 5]: 2.67%
Stability: measured concentration, Mean ± SD [2, 5]: 410.67 ± 12.03 ng/mL
Stability: Accuracy (RE%) [2, 6]: 0.60%
Stability: measured concentration, Mean ± SD [2, 6]: 804.83 ± 20.23 ng/mL
Stability: Accuracy (RE%) [2, 7]: 3.83%
Stability: measured concentration, Mean ± SD [2, 7]: 2.08 ± 0.07 ng/mL
Stability: Accuracy (RE%) [2, 8]: 6.08%
Stability: measured concentration, Mean ± SD [2, 8]: 424.33 ± 9.35 ng/mL
Stability: Accuracy (RE%) [2, 9]: −2.15%
Stability: measured concentration, Mean ± SD [2, 9]: 782.83 ± 22.19 ng/mL
Stability: Accuracy (RE%) [2, 10]: 0.83%
Stability: measured concentration, Mean ± SD [2, 10]: 2.02 ± 0.08 ng/mL
Stability: Accuracy (RE%) [2, 11]: 0.13%
Stability: measured concentration, Mean ± SD [2, 11]: 400.50 ± 19.99 ng/mL
